Reference: US20240246934A1, “QUINAZOLINE-BASED COMPOUND, COMPOSITION, AND APPLICATION OF QUINAZOLINE-BASED COMPOUND” (BEIJING SCITECH-MQ PHARMACEUTICALS LIMITED, priority 2021, published 2024)

What was measured:
HER2 kinase = molecular target: T1, HER2 kinase (Homo sapiens, UniProt P04626); assay: HER2 kinase assay (ULight/PT66 TR-FRET); format: biochemical
T1 construct: purchased Carna Biosciences 08-016
In short: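 HER2 kinase preincubated 5 min with compounds (11-point 3-fold series, duplicates), then reacted 120 min at room temperature with ATP and ULight-poly GT peptide, each prepared at 4× working concentration (40 μM ATP, 400 nM substrate, 40 nM kinase). PT66 antibody added for 60 min, TR-FRET read; IC50 from inhibition curves.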

[1] = molecular target: Ba/F3 HER2 A775_G776insYVMA cells (Homo sapiens, UniProt P04626, DUP772-775, cells depend on it); assay: Inhibition of cell proliferation, CTG method, Ba/F3 HER2 A775_G776insYVMA; format: cell-based; details: 72 hours, read-out: Ba/F3 HER2 A775-G776insYVMA IC50
In short: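 Ba/F3 HER2 A775_G776insYVMA cells in RPMI1640 with 10% FBS were plated at 3000 cells/well and treated directly with compound (top 10 μM, 4-fold, 9 concentrations, duplicates).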

[2] = molecular target: Ba/F3 EGFR D770_N771insSVD cells (Homo sapiens, UniProt P00533, DUP768-770, cells depend on it); assay: Inhibition of cell proliferation, CTG method, Ba/F3 EGFR D770_N771insSVD; format: cell-based; details: 72 hours, read-out: Ba/F3 EGFR D770_N771insSVD IC50
Source text: The present application examined the in vitro anti-proliferative activity of the compounds of the present disclosure against in vitro cultured BT474, NCI-N87, Ba/F3-EGFR-VIII and Ba/F3 HER2 A775_G776insYVMA and Ba/F3 EGFR D770_N771insSVD cell lines by CTG method.
Reagents and consumables: RPMI1640 (ThermoFisher, Cat. No. C11875500BT); fetal bovine serum (Hyclone, Cat. No. SV30087.03); 0.25% trypsin-EDTA (ThermoFisher, Cat. No. 25200-072); penicillin-streptomycin (Hyclone, Cat. No. SV30010); DMSO (Amresco, Cat. No. 0231-500ML); CTG assay kit (Promega, Cat. No. G924C); 96-well plate (Corning, Cat. No. 3603); multifunctional plate reader (Perkin Elmer, Cat. No. Envision)
Cell lines: BT474 (from the cell bank of Chinese Academy of Sciences), NCI-N87 (from ATCC), Ba/F3-EGFR-VIII, Ba/F3 HER2 A775_G776insYVMA and Ba/F3 EGFR D770_N771insSVD (all from KYinno Biotechnology (Beijing) Co., Ltd.); all of the above cells were cultured with RPMI1640 medium containing 10% fetal bovine serum, 100 U/mL penicillin, and 100 μg/mL streptomycin in the culture process.
1. The assay compound was dissolved with DMSO to form a stock solution and a gradient dilution was performed, followed by dilution with the corresponding medium to obtain a solution with 5-fold working concentration.
2. Cells in logarithmic growth phase were adjusted to specific cell densities by dilution with culture medium, and 80 μL of cell suspension was added to a 96-well plate, such that plating densities of cells of BT474, NCI-N87, Ba/F3-EGFR-VIII, Ba/F3 HER2 A775_G776insYVMA and Ba/F3 EGFR D770_N771insSVD were all 3000 cells/well. The cells of Ba/F3-EGFR-VIII, Ba/F3 HER2 A775_G776insYVMA and Ba/F3 EGFR D770_N771insSVD were used directly in the next step (treatment with compound), whereas the BT474 and NCI-N87 needed to be cultured overnight in a 37° C., 5% carbon dioxide gas incubator to adhere to the wall, and then treated with compounds.
3. 20 μL of compound solution was added to each well of the 96-well plate that had been inoculated with cells. The highest concentration of the assayed compound was 10 μM, 4-fold serial dilution, a total of 9 concentrations, and duplicate wells. A control group without compound was also set up.
4. The cells were cultured for another 72 hours, and then cell viability was detected by CTG assay kit. Signal values were read with a multifunctional plate reader (Perkin Elmer). GraphPad Prism software was used to create a dose-response curve and IC50 was calculated.

[3] = tested on: Ba/F3 ERBB2 A775_G776insYVMA; assay: Efficacy in nude mouse tumor-bearing model of Ba/F3 ERBB2 A775_G776insYVMA; format: in vivo, BALB/c nude mice; details: 30 mg/kg

Ba/F3 HER2 A775_G776insYVMA cells, sequence (P04626 with tags, fused parts or gaps DUP772-775): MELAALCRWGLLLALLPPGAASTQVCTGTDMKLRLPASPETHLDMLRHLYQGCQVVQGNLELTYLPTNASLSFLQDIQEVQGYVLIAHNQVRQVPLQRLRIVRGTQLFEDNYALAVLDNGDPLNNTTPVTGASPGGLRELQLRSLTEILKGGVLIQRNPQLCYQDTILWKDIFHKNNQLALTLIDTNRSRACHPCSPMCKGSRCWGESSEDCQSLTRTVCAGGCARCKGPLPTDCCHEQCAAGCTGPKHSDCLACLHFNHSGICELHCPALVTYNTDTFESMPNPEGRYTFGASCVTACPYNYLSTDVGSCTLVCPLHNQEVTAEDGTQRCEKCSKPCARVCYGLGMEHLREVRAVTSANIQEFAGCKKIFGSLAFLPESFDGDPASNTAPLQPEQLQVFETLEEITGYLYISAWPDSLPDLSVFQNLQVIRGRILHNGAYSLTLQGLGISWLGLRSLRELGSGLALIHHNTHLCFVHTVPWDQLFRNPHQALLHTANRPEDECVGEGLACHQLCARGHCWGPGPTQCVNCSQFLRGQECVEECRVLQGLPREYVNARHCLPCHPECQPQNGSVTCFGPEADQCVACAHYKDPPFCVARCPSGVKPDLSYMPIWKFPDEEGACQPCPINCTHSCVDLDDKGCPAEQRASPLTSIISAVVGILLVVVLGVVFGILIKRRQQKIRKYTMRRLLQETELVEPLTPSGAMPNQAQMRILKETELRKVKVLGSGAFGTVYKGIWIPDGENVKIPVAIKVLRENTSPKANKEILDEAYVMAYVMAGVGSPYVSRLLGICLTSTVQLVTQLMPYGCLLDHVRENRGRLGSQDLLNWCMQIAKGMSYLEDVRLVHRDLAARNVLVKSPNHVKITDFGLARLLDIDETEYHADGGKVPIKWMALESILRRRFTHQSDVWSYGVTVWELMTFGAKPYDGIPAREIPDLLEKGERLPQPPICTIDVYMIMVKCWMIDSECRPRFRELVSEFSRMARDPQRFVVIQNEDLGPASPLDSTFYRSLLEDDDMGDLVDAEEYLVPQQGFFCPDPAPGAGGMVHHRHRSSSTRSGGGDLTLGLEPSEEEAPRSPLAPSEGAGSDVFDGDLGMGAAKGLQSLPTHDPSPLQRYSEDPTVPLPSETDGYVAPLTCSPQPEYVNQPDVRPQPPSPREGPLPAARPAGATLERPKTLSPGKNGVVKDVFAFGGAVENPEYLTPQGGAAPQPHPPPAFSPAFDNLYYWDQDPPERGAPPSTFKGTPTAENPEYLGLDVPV
Ba/F3 EGFR D770_N771insSVD cells, sequence (P00533 with tags, fused parts or gaps DUP768-770): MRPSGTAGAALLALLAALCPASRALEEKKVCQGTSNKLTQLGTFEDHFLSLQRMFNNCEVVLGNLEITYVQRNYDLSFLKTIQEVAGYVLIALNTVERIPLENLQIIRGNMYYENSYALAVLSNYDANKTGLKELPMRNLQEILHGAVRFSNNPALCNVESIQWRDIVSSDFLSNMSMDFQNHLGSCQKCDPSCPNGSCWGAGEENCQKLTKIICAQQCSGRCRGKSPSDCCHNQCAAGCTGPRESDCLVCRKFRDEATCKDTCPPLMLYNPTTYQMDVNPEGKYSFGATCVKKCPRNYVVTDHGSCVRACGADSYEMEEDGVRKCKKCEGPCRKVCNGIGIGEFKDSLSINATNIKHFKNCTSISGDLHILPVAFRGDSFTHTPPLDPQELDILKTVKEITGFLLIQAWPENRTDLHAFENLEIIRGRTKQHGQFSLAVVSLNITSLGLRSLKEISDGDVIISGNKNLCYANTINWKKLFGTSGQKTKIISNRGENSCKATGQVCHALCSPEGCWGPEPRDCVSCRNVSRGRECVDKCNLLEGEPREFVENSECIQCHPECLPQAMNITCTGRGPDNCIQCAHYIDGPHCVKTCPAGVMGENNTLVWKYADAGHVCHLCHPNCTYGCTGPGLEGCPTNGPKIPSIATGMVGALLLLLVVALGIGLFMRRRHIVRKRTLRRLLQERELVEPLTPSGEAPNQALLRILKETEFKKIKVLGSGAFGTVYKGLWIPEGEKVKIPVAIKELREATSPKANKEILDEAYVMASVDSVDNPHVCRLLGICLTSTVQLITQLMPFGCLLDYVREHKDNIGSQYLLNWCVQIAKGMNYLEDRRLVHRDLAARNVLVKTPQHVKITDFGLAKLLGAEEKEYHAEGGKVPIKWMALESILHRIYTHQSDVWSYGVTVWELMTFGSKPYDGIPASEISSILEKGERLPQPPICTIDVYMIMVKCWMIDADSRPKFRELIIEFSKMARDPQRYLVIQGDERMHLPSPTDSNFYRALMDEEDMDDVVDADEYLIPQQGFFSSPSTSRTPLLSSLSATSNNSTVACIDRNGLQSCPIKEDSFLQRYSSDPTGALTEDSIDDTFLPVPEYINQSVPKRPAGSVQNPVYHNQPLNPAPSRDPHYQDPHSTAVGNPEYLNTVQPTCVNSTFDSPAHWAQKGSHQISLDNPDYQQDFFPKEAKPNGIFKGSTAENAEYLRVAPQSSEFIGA
T1 sequence (P04626 23-1255): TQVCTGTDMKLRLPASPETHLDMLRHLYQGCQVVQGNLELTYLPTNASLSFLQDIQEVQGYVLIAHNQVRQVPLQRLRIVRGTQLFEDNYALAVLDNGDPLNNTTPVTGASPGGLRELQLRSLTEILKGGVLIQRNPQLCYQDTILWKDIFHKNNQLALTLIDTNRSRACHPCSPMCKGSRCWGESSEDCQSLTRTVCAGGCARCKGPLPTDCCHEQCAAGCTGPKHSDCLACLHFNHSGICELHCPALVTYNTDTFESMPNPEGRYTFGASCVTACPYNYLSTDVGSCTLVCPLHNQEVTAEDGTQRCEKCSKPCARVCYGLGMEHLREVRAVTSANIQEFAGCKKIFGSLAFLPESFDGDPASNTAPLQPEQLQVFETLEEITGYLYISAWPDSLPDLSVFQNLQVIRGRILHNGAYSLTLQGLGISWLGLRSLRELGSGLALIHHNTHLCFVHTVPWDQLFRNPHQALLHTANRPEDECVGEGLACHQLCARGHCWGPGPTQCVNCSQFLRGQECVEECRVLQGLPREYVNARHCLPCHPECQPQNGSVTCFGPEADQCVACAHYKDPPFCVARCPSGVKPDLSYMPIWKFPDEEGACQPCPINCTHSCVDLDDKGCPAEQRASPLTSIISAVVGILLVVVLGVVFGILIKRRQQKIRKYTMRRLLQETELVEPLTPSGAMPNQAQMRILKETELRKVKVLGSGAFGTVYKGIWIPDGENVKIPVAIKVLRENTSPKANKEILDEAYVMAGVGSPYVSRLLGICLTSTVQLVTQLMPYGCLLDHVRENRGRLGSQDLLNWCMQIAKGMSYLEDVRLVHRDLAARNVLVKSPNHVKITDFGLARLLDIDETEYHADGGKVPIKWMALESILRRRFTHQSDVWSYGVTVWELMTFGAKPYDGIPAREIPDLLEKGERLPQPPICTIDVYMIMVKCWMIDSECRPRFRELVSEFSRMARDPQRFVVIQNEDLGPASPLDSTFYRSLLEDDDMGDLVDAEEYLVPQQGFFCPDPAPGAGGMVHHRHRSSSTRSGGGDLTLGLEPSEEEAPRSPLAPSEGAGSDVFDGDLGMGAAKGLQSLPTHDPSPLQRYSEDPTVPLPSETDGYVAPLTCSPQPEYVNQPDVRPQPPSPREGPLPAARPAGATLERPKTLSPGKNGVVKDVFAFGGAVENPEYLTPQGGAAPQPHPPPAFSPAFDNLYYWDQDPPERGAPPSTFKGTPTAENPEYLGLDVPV

SMILES | IC50 (HER2 kinase) | GI50 [1] | GI50 [2] | T/C (%) ([3]; QD×14, PO, day 14) | T/C (%) ([3]; QD×15, PO, day 15) | T/C (%) ([3]; QD×11, PO, day 11)
COc1c(NC(=O)/C=C/[C@H]2CCCN2C)ccc2ncnc(Nc3ccc(OCc4ccccn4)c(Cl)c3)c12 [Example 4, (R,E)-N-(4-((3-chloro-4-(pyridin-2-ylmethoxy)phenyl)amino)-5-methoxyquinazolin-6-yl)-3-(1-methylpyrrolidin-2-yl)acrylamide] | < 10 nM | < 1 nM | 10 to 100 nM | 2.6% | – | –
COCCCOc1c(NC(=O)/C=C/[C@H]2CCCN2C)ccc2ncnc(Nc3ccc(OCc4ccccn4)c(Cl)c3)c12 [Example 9, (R,E)-N-(4-((3-chloro-4-(pyridin-2-ylmethoxy)phenyl)amino)-5-(3-methoxypropoxy)quinazolin-6-yl)-3-(1-methylpyrrolidin-2-yl)acrylamide] | < 10 nM | 1 to 5 nM | 10 to 100 nM | – | 3.85% | –
CCN1CCC[C@@H]1/C=C/C(=O)Nc1ccc2ncnc(Nc3ccc(OCc4ccccn4)c(Cl)c3)c2c1OC [Example 29, (R,E)-N-(4-((3-chloro-4-(pyridin-2-ylmethoxy)phenyl)amino)-5-methoxyquinazolin-6-yl)-3-(1-ethylpyrrolidin-2-yl)acrylamide] | < 10 nM | < 1 nM | 10 to 100 nM | – | – | 18.7%
